Read-outs that look alike come from different tables or passages of the source.
Key:
[1] = cited from earlier work
C/EBPα = test: Western blot analysis of protein expression in 3T3-L1 cells; format: cell-based; details: FIG. 8
Procedure: (§1) Western blot analysis was performed in order to examine the effect of cordycepin on the expression of C/EBPα, PPARγ, and anti-leptin, the essential factors involved in adipogenesis and lipogenesis.
(§2) 3T3-L1 cells cultured in 6-well dishes were rinsed three times with ice-cold PBS, scraped into 0.5 ml of PBS, and centrifuged at 14,000 rpm for 1 min. Cell pellets were resuspended in 0.2 ml ice-cold RIPA buffer (50 mM Tris-HCl, pH 7.4, 150 mM NaCl, 1 mM EDTA, 1% NP 40, 0.25 % deoxycholate) and protease inhibitors (Complete Mini Protease Inhibitor Tablets, Roche, Indianapolis, IN). Suspensions were sheared through a 20-gauge needle, incubated on ice for 30 min and centrifuged at 14,000 rpm at 4°C for 20 min. Supernatants were collected and the protein concentration was determined using a BCA assay kit. Cell lysates were mixed with an equal volume of Laemmli SDS loading buffer (Bio-Rad Laboratories, Hercules, CA), equal amounts of lysate protein ([…]) were loaded onto SDS-PAGE, and electrophoresis was carried out before the protein was transferred to a nitrocellulose membrane (Bio-Rad Laboratories, Hercules, CA). The membranes were blocked for 1 h in PBS containing 0.05% Tween-20 (USB corp., Cleveland, USA) and 5% nonfat dry milk. The membranes were incubated with antibodies against C/EBPα, PPARγ (Santa Cruz, CA) and anti-leptin (Sigma) for 1 hour, followed by three 10 min washes in PBS/Tween-20. The blots were subsequently treated with appropriate secondary antibodies conjugated to horseradish peroxidase for 1 hour at room temperature, and washed with PBS-T three times for 10 min. To visualize reaction complexes, an enhanced chemiluminescence system (ECL, Amersham International plc, Little Chalfont Buckinghamshire, England) was used, and reaction complexes were exposed to X-ray film.

anti-leptin = test: as above; format: cell-based; details: 32 µM, differentiated 3T3-L1 cells, FIG. 8
Procedure: as §1, §2

PPARγ = test: as above; format: cell-based; details: FIG. 8
Procedure: as §1, §2

3T3-L1 cells [2] = test: Triacylglycerol synthesis in 3T3-L1 cells (intracellular triacylglycerol per unit weight of protein); format: cell-based
Procedure: A measurement was made to find the effect of cordycepin on the synthesis of triacylglycerol (TAG). First, the cells in each group were detached using a Tris-EDTA buffer and disrupted with an ultrasonicator. A calibration curve for a standard solution was made according to the protocol of a BCA protein assay kit. The cell lysates were diluted in the kit reagent and warmed at 37°C for 30 min. Then, within 10 min, the solutions were measured for absorbance at 562 nm to quantify protein. Separately, according to the protocol of a BCS triacylglycerol kit, the cell lysates were diluted in the kit reagent and warmed at 37°C for 10 min. Then, within 60 min, the absorbance of the solutions was measured at 550 nm against a reagent blank. The amount of intracellular triacylglycerol per unit weight of protein (µg/mg) was calculated according to a calculation formula.
For the preliminary investigation of the mode of action of cordycepin on differentiation and TAG synthesis, adenosine, one of several cordycepin homologues, was added to the submerged medium for differentiation at the time of initiating differentiation at the same molar concentration as cordycepin (32 µM).

3T3-L1 cells [3] = test: Differentiation of 3T3-L1 fibroblast cells into adipocytes (oil red O staining); format: cell-based
Procedure: Fibroblast cells (3T3-L1 cells) were cultured in 10 cm-culture dishes containing animal cell culture media (refer to Table 2, below) at 37°C in a 5% CO2 incubator, with the media replaced with fresh media every two or three days.
3T3-L1 cell line was purchased from the American Type Culture Collection (ATCC CL-173). The cells were grown and differentiated according to the protocol of Frost and Lane (Frost and Lane, 1985): 3T3-L1 preadipocytes were cultured in 100 mm plates containing a submerged medium for proliferation (DMEM supplemented with 10% BCS, 100 U/ml penicillin, and 100 µg/ml streptomycin) in an atmosphere of 5% CO2 at 37°C. When the cell become confluent, the cells were harvested, splitted in a 6-well plate to a cell number of 4.0×10^5 cells/ml and subsequently cultured until reaching confluence again. Two days after confluence, the cells were stimulated to differentiate into adipocytes by incubating for 2 days in the medium for stimulating differentiation (MSD, DMEM containing 1 µM DEX, 0.5 mM IBMX, and 10 µg/ml insulin), and maintained in the differentiated state in the medium for differentiation (MFD containing 10% BCS and 5 µg/ml insulin) for 7 days. MSD was freshly replaced every 48 hours and the comparison of the each medium composition used in this example was shown in Table 2.
Cordycepin was dissolved in the appropriate warm medium and added at the final concentration of 4, 16, and 32 µM.
Cells obtained in Example 1-1 were washed twice with PBS (pH 7.4), fixed with 10% formalin in PBS for 1 hour at room temperature and washed three times with distilled water. The cells were stained with filtered 0.5% oil red O for 10 min, and washed again with distilled water three times. The pictures of the stained cells were taken using an Olympus (CKX-41, Tokyo, Japan) microscope. The density of stained oil red O was measured using a spectrometer (DU-70, Beckman, Fullerton, CA) at 518 nm after the dye was extracted with propanol. […]

[4] = anti-obesity drugs, background knowledge
[5] = adenosine 32 µM, differentiated 3T3-L1 cells

NC1=NCC(c2ccccc2)O1 (centres unmarked) [Aminorex]
Side effect [1, 4]: Pulmonary hypertension caused

CC(N)Cc1ccccc1 (centres unmarked) [Amphetamine]
Side effect ([1]; in vivo): Addictive

CCNC(C)Cc1cccc(C(F)(F)F)c1 (centres unmarked) [Fenfluramine]
Valvular dysfunction caused in persons administered in combination with other therapy ([1]; share of persons, sale prohibited in 1997): Valvular dysfunction caused in 35% of persons administered in combination with other therapy, sale prohibited in 1997.

CCCCCCCCCCC[C@@H](C[C@@H]1OC(=O)[C@H]1CCCCCC)OC(=O)[C@H](CC(C)C)NC=O [Orlistat]
Side effect [1, 4]: Diarrhea, fatty stool, fecal incontinence.

CC(C)CC(N(C)C)C1(c2ccc(Cl)cc2)CCC1 (centres unmarked) [Sibutramine]
Side effect [1, 4]: Blood pressure increase, insomnia, xerostomia and vertigo. Prohibited to the patients with cardiovascular disease.

Nc1ncnc2c1ncn2[C@@H]1O[C@H](CO)[C@@H](O)[C@H]1O [adenosine]
C/EBPα level (C/EBPα; [5]): inhibited | expression levels of anti-leptin (anti-leptin): no significant effect | expression levels of PPARγ (PPARγ; [5]): no significant effect | inhibitory effect of cordycepin on TAG synthesis of 3T3-L1 cells (3T3-L1 cells [2]; adenosine 32 µM added together with cordycepin 32 µM at initiation of differentiation, FIG. 7): suppressed | inhibitory effect of cordycepin on differentiation of 3T3-L1 cells (3T3-L1 cells [3]; adenosine 32 µM added together with cordycepin 32 µM at initiation of differentiation, FIG. 6): suppressed

Nc1ncnc2c1ncn2[C@@H]1O[C@H](CO)C[C@H]1O [cordycepin, 3'-deoxyadenosine]
expression levels of C/EBPα (C/EBPα; 32 µM, 3T3-L1 cells): inhibited | expression levels of anti-leptin (anti-leptin): inhibited | expression levels of PPARγ (PPARγ; 32 µM, 3T3-L1 cells): inhibited | synthesis of triacylglycerol in 3T3-L1 cells (3T3-L1 cells [2]; cordycepin 4, 16 and 32 µM, FIG. 5): inhibits the synthesis of triacylglycerol in 3T3-L1 cells in a dose-dependent manner | differentiation of 3T3-L1 cells into adipose cells (3T3-L1 cells [3]; cordycepin 4, 16 and 32 µM, oil red O, 518 nm, FIG. 4): inhibits the differentiation of 3T3-L1 cells into adipose cells in a dose-dependent manner | differentiation of 3T3-L1 cells into adipocytes (3T3-L1 cells [3]; in the presence of 32 µM of cordycepin, FIG. 4): almost completely suppressed

Thyroid hormone
Side effect [1, 4]: Hyperthyroidism caused

Reference: patent EP2077851B1, “A PHARMACEUTICAL COMPOSITION COMPRISING CORDYCEPIN FOR THE TREATMENT AND PREVENTION OF OBESITY” (priority 2006, dated 2008)
